From ChEMBL document CHEMBL1201862, “PubChem BioAssay data set” (2004) come the findings set out here.

Assay [1] in a line: Vero cell cytotoxicity, dose response, cytotoxicity control for Vif-APOBEC3G degradation inhibitor project, Vero cells (AID 1117358). The note with it: Human immunodeficiency virus 1, Vero. Format: functional.
Assay [2] in a line: inhibitors of intracellular T. cruzi replication, confirmation, NIH3T3 host cells, beta-gal luminescence (AID 2044).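 Note: intracellular parasites grown in NIH/3T3 mouse fibroblasts as host cells; luminescent beta-galactosidase reporter signal from transgenic T. cruzi replicating inside host cells; inhibitors lower the luminescence signal.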 Format: functional, cell-based.
Assay [3] in a line: cytotoxicity toward NIH3T3 fibroblasts, dose response, counter-screen, cell-based, ATP luminescence, mouse fibroblasts (AID 2010).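 Note: cells exposed to compound for about 90 hours before reading.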 Format: functional. (In general: The purpose of a counterscreen is to sort out artefacts and off-target activity.)
A short description of assay [4]: Luminescence Cell-Based Dose Response to Identify Activators of 5'UTR Stem-Loop Driven Prion Protein mRNA Translation in H4-C Neuroglioblastoma Cells. [Related pubchem assays: 1829 (Project Summary), 1814 (Primary HTS)]. Format: functional.
A short description of assay [5]: Luminescence Cell-Based Dose Response HTS to Identify Activators of Luciferase Translation or Activity in H4 […] Cells. [Related pubchem assays: 1829 (Project Summary), 1814 (Primary HTS)]. Format: functional.
The test system of a further assay is H4. Put plainly: Luminescence Cell-Based Dose Response HTS to Identify Activators of 5'UTR Stem-Loop Driven Prion Protein mRNA Translation in H4 Neuroglioblastoma Cells. [Related pubchem assays: 1829 (Project Summary), 1814 (Primary HTS)]. Format: functional. The note with it: Homo sapiens.
A short description of assay [6]: Luminescence Cell-Based Dose Response to Identify Activators of Luciferase Translation or Activity in H4-C Neuroglioblastoma Cells. [Related pubchem assays: 1829 (Project Summary), 1814 (Primary HTS)]. Format: functional.
Assay [7] is described as follows: Luminescence Cell-Based Dose Confirmation to Identify Activators of 5'UTR Stem-Loop Driven Alpha-Synuclein mRNA Translation in H4 Neuroglioblastoma Cells. [Related pubchem assays: 1829 (Project Summary), 1814 (Primary HTS)]. Format: functional.
The nature of assay [8]: THP-1 cell cytotoxicity, dose response, cytotoxicity control for Vif-APOBEC3G degradation inhibitor project, THP-1 cells (AID 1117359). Format: functional. The note with it: Human immunodeficiency virus 1, THP-1.
Assay [9] deals with T1, Ubiquitin-conjugating enzyme E2 N (Homo sapiens, UniProt P61088).
T1 sequence (P61088 whole entry): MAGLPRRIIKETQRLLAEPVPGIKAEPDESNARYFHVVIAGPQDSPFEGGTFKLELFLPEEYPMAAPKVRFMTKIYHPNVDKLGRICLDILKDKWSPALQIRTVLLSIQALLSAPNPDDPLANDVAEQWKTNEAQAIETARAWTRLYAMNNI
Format: functional.

In a further assay the test system is INS1. Put plainly: beta cell apoptosis inhibitors, cytokine rescue, dose response, luminescence, retest (AID 449756).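 Note: cell death triggered by IL-1 beta plus TNF-alpha plus IFN-gamma mixture; protective hits raise ATP signal compared with cytokine alone wells.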 Format: functional, cell-based. The following applies: Rattus norvegicus.
In assay [10] the target is T2, Short transient receptor potential channel 4 (Mus musculus, UniProt Q9QUQ5).
T2 sequence (Q9QUQ5 whole entry): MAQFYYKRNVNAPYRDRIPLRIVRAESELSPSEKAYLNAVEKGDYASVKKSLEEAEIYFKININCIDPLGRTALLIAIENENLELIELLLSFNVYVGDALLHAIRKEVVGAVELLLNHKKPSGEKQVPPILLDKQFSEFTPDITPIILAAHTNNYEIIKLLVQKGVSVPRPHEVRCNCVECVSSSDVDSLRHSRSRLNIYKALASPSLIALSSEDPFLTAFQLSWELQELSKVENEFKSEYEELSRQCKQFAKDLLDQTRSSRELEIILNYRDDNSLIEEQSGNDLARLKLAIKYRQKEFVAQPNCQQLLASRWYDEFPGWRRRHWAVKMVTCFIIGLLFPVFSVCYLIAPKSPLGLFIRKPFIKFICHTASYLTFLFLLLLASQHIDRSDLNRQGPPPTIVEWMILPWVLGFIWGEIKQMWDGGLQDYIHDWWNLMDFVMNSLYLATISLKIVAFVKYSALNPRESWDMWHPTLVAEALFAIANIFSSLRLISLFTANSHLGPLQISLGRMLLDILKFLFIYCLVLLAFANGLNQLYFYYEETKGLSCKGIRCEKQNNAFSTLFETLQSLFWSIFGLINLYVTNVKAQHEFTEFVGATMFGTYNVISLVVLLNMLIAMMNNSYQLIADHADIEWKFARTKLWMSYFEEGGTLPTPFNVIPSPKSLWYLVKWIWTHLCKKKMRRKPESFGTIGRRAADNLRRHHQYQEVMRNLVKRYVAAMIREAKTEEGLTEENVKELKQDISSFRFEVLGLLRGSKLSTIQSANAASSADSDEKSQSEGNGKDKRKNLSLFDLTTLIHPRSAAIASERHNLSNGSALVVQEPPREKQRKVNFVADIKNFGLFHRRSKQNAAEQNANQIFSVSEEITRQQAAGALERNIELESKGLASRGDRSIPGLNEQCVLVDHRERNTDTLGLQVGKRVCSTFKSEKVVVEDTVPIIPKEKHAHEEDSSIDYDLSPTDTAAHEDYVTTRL
Put plainly: mouse TRPC4 channel inhibitors, dose response, cell-based, HEK293 TRPC4/mu-opioid, Fluo-4 calcium (AID 434942).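 Note: potency of inhibitors blocking the TRPC4 calcium response.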 Format: functional.

The target of assay [11] is Aryl hydrocarbon receptor (Homo sapiens, UniProt P35869). Put plainly: Luminescence-based cell-based high throughput dose response assay for activators of the Aryl Hydrocarbon Receptor (AHR). [Related pubchem assays: 2796 (Primary screen (AHR activators in singlicate)), 2845 (Confirmation screen (AHR activators in triplicate)), 434939 (Counterscreen (PXR activators in triplicate)), 2804 (Summary (AHR activators))]. Format: ADME.
Aryl hydrocarbon receptor, sequence (P35869 whole entry): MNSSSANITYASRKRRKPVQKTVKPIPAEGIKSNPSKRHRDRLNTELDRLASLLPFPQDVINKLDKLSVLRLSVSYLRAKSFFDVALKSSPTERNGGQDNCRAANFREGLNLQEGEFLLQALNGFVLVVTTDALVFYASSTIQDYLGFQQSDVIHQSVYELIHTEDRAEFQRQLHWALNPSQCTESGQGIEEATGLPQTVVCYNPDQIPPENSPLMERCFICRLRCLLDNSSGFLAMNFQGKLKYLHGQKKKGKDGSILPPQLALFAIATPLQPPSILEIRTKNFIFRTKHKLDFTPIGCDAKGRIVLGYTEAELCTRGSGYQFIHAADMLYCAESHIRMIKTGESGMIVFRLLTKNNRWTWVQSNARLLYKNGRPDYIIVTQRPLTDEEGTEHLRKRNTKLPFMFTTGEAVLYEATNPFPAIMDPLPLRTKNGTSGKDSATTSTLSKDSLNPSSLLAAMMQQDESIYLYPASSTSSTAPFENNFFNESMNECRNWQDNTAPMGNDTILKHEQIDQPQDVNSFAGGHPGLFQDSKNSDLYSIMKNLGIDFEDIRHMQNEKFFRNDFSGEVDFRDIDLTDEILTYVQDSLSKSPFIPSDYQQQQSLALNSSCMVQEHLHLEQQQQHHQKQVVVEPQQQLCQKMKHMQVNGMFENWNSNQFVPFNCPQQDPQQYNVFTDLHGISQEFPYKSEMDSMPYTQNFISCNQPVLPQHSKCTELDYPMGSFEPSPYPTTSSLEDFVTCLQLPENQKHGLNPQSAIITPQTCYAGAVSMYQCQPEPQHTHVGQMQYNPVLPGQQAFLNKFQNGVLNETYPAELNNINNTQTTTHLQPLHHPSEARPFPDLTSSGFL

Assay [12] deals with Heat shock protein HSP 90-alpha (Homo sapiens, UniProt P07900). Put plainly: Luminescence-based dose response biochemical high throughput screening assay for inhibitors of the Heat Shock Protein 90 (HSP90). [Related pubchem assays: 1831 (Summary AID.), 1846 (Confirmation screen.), 1789 (Primary screen.)].
Another assay has as its system Danio rerio. As to the kind of experiment: In Vivo Angiogenesis Dose-Response Confirmation. [Related pubchem assays: 732 (Assay preceding this confirmatory assay.)]. Format: functional, organism-based.
Assay [13] can be described thus: Luminescence Cell-Based Dose Retest to Confirm Inhibitors of Cancer Stem Cells. [Related pubchem assays (depositor defined):AID2717, AID2721]. Format: functional. The following applies: Homo sapiens.
A short description of assay [14]: Luminescence-based cell-based high throughput dose response assay to identify activators of the DAF-12 from the parasite S. stercoralis (ssDAF-12). Format: functional.
In a further assay the target is Cytochrome P450 3A4 (Homo sapiens, UniProt P08684).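 Note: CYP3A4 tested as one member of a cytochrome P450 panel screen.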
Cytochrome P450 3A4, sequence (P08684 whole entry): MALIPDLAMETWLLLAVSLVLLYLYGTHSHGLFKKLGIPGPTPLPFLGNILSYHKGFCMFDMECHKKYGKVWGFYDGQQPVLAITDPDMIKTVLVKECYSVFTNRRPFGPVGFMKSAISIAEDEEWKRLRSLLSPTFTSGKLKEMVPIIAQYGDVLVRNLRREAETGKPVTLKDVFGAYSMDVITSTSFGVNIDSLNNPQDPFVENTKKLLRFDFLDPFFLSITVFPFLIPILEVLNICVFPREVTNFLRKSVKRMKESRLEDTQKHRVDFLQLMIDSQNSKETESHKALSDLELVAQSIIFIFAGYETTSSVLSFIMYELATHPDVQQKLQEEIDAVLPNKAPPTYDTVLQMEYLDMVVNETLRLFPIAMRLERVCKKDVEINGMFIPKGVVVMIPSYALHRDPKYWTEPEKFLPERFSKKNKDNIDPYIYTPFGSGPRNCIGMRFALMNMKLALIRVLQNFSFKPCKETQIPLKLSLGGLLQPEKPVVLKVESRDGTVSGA

Active and inactive are the calls of the source. Where only a bound is given, the exact number is not on record here.

As usually defined, the CC50 is the concentration giving 50% cytotoxicity. Regarding `Cc1ccc(Nc2nc(C(=O)NCc3ccco3)cs2)cc1`, the 50% cytotoxic concentration (CC50) in [1] is > 40 µM (active).

Turning to `COc1ccc(N=C(S)NCCc2ccccc2OC)c(OC)c1`, the CC50 in [1] is > 40 µM (active).

As usually defined, the EC50 is the concentration giving half of the maximal effect. As for `COC(=O)c1ccc(CN2CCCC(CCC(=O)NCc3ccc(C)o3)C2)cc1` (configuration not stated), the concentration for a half-maximal effect (EC50) in assay [2] was < 0.1 µM (active); in assay [3] it was > 60 µM (not active); in the assay “cells”, 0.113 µM (active).

Turning to `COc1ccccc1-c1nc(-c2ccc(Br)cc2)no1`, the half-maximal effective concentration (EC50) was 0.427 µM (active) in [4]; 0.217 µM (active) in assay [5]; < 0.1 µM (active) in the assay with H4; 0.378 µM (active) in assay [6]; 0.34 µM (active) in assay [7].

As to `CCn1c(=O)oc2cc(NC(=O)CCl)ccc21`, the CC50 in [8] was > 40 µM (active).

As for `O=C1/C(=C\c2ccco2)CCC/C1=C\c1ccco1`, in assay [8], the CC50 is > 40 µM (active).

In general, IC50 refers to the concentration needed to halve the response being measured. What is called AC50 is the concentration at which the activity in the assay is half-maximal. Consider `CC(C)(C)c1cc(NCCCn2ccnc2)n2ncc(-c3ccccc3)c2n1`, for which the EC50 was 1.27 µM (active) in [4]; < 0.1 µM (active) in [5]; > 120 µM (not active) with H4; 0.377 µM (active) in [6]; 0.735 µM (active) in assay [7]. Besides, in assay [9], the IC50 is > 20 µM (inactive). Also, in the assay on INS1, the concentration at half-maximal activity (AC50) is 11 µM (active).

On to `COc1cc(CN(C)CC2CCCN(CCc3ccccc3F)C2)cc(Cl)c1OC` (configuration not stated), for which the EC50 was < 0.1 µM (active) in [2], 11.1 µM (active) in [3], 3.35 µM (active) in assay [10] and 0.263 µM (active) in “cells”.

Turning to `Cc1ccc(C)c2sc(NC(=O)C3CC3)nc12`, in [11], the half-maximal effective concentration (EC50) was 4.22 µM (active).

Regarding `COC(=O)c1ccc(N/C=C/C(=O)c2ccccc2)cc1`, the IC50 in [12] was 3.73 µM (active).

`O=C(CN1CCOCC1)Nc1nc2ccc([N+](=O)[O-])cc2s1`: in assay [11], the half-maximal effective concentration (EC50) is 2.61 µM (active).

With `Cc1cccc2c1NC(=O)/C2=C1\Nc2ccccc2\C1=N/O`, the concentration for half-maximal inhibition (IC50) in the assay on Danio rerio was 0.68 µM (active).

Turning to `Cc1[nH]n(-c2ccccc2)c(=O)c1N=Nc1ccc(C(N)=O)cc1`, in [12], the half-maximal inhibitory concentration (IC50) is 20.9 µM (not active).

Regarding `O=c1c2ccccc2nc2n1CCc1c-2[nH]c2ccccc12` [RUTAECARPINE], the half-maximal inhibitory concentration (IC50) with Danio rerio is 25.5 µM (not active); in [14], > 67.6 µM (inactive). Also, the half-maximal activity concentration (AC50) in assay [13] was 25.1 µM (active); on Cytochrome P450 3A4 it was 3.98 µM (inconclusive).
